# Measurements reported in patent US20060078630A1, “Method for the production of flavonoid-containing compositions and use thereof” (priority 2003, published 2006).
# Legend:
# [1] = Antioxidant effect by the TEAC III method; assay type: biochemical; details: in comparison with Trolox and ascorbic acid
# Method: The relative antioxidant effect of […] extract was determined by the TEAC III method in comparison with Trolox and ascorbic acid: The TEAC III method and other methods are described in Böhm V. (2000) Ernährungsumschau 47, pages 372-375.
# [2] = system: phytohaemagglutinin-stimulated mononuclear cells from peripheral blood; assay: Inhibition of proliferation of stimulated mononuclear cells by individual flavonoids (3H-thymidine incorporation); assay type: cell-based, human; details: luteolin, luteolin-7-glucoside, apigenin at 64-2 μg/ml; 1 μg/ml phytohaemagglutinin; 24 h + 18 h 3H-thymidine; FIG. 3b
# Method: For this purpose, mononuclear cells from the peripheral blood of a health donor were isolated via Ficoll density gradients and incubated in RPMI medium with 5% foetal calf serum in microtitre plates. The cells were incubated in triplicates with the flavonoids luteolin, luteolin-7-glucoside and apigenin. The pure substances were dissolved in 70% ethanol and further diluted in medium. The final concentrations were 64, 32, 16, 8, 4, 2 and 0 μg/ml. After addition of the flavonoids, the cells were stimulated with 1 μg/ml of phytohaemagglutinin and incubated for 24 h in an incubator at 37° C. After addition of 1 μCurie of radioactive ^3H-thymidine, the cells were incubated for a further 18 h, and the incorporated radioactivity was then measured in a scintillation counter (Canberra-Packard).
# [3] = system: activated mononuclear cells (lymphocytes); assay: Induction of apoptosis in activated mononuclear cells (cell death detection ELISA); assay type: cell-based; details: individual flavonoids contained in the extracts; FIG. 5b
# Method: After addition of the additives, the cells were stimulated with 1 μg/ml of phytohaemagglutinin and incubated for 48 h in an incubator. The apoptosis induction was then determined by measuring the oligonucleosomes (low molecular weight DNA fragments) formed in the cells (cell death detection ELISA). […] The apoptosis induction could be blocked by a caspase inhibitor, i.e. is caspase-induced (FIG. 5a).
Compound,relative antioxidant effect [1],proliferation-inhibiting effect among individual flavonoids [2],apoptosis-inducing activity among individual flavonoids [3]
O=C1O[C@H]([C@@H](O)CO)C(O)=C1O [Ascorbic acid],1.1,–,–
Cc1c(C)c2c(c(C)c1O)CCC(C)(C(=O)O)O2 (stereo not shown) [Trolox],1.0,–,–
O=c1cc(-c2ccc(O)c(O)c2)oc2cc(O)cc(O)c12 [luteolin],–,strongest proliferation-inhibiting effect,strongest apoptosis-inducing activity
